Experiments:
[1] = test system: cucumber downy mildew; assay: In vivo pot determination, control effect on cucumber downy mildew; details: 400 ppm, foliar spray, parallel comparison (Table 4)
Description: (§1) An in vivo pot determination method was adopted, i.e., a sample of the compound to be tested was dissolved with a small amount of solvent (the type of the solvent may be, for example, acetone, methanol and DMF, and selected according to the capability to dissolve the sample; the volume ratio of the amount of the solvent to the amount of sprayed solution is equal to or less than 0.05), diluted with water containing 0.1% Tween 80 and formulated into a required concentration of solution to be tested. Foliar spray treatment was carried out with the compounds of the present invention at the designed concentrations. A blank control with clear water spray was set and repeated for three times. Disease inoculation was carried out on the second day after the treatment. After inoculation, the plants were placed in a phytotron for moisturizing cultivation (temperature: 25° C. on day, 20° C. at night, relative humidity 95-99%). […] After the control was fully diseased (generally one week), the control effects of the compounds were evaluated. For the result survey, A Manual of Assessment Keys for Plant Diseases compiled by American Phytopathological Society can be referred to, which uses 100-0 for representation. “100” level represents no disease and “0” level represents the most severe disease degree.

[2] = test system: soybean rust; assay: In vivo pot determination, control effect on soybean rust; details: foliar spray
Description: as §1

[3] = test system: bacterial spot of cucumber (Pseudomonas syringae pv. lachrymans); assay: Field trial, control of bacterial spot of cucumber; assay type: in vivo; details: whole plant spray three times at 7 day interval, investigated 7 days after last delivery
Description: Compounds 47 and 97 were selected from the above compounds for field trial to control bacterial spot of cucumber (Pseudomonas syringae pv. lachrymans). The treatment dose of the test drug was 400 mg/L, and the treatment dose of a control drug CK2 was 700 mg/L. The test drug and the control drug were arranged in random blocks; the plot area was 15 m^2; and repetition was conducted for 3 times. The drug delivery mode was the whole plant spray. Drug delivery was conducted for three times, with an interval of 7 days, and control effect investigation was carried out 7 days after the last drug delivery. During investigation, 5 points in each plot were sampled; all leaves were investigated; and disease indexes and control effects were calculated according to the percentage level of diseased spot area of each leaf in the whole leaf area.

[4] = test system: soft rot of Chinese cabbage; assay: Control effect on soft rot of Chinese cabbage (leaf piece, spray, needle wound inoculation); assay type: in vivo, soft rot bacteria of Chinese cabbage; details: 400 mg/L, sprayed on leaf, 48 hours in the dark
From the text: (§2) The compounds of the present invention are used to determine the control effect on various plant bacterial diseases. For different bacterial diseases, the test procedures are as follows:
Soft rot of Chinese cabbage: 2 cm of square Chinese cabbage leaf is cut and placed in a glass petri dish lined with double-layer filter paper. A compound dissolved in N,N dimethylformamide and diluted with water to a required concentration is sprayed onto the surface of the Chinese cabbage leaf. After the medicinal liquid on the surface of the Chinese cabbage leaf is dried in a fume hood, the surface of the Chinese cabbage leaf is acupunctured by using an inoculating needle to cause a wound. […] of soft rot bacteria of Chinese cabbage cultured to a stable growth period is added to the wound for inoculation. Finally, the test materials are placed in an incubator and cultured for 48 hours in the dark; and the control effect is investigated after full onset of diseases through control.

[5] = test system: melon bacterial fruit blotch; assay: Control effect on melon bacterial fruit blotch (seed soak, greenhouse); assay type: in vivo; details: 400 mg/L, seeds soaked in bacteria plus compound solution
Description: as §2
Melon bacterial fruit blotch: the compound to be tested is dissolved with a small amount of N,N dimethylformamide and diluted with water to the required concentration. The pathogenic bacteria cultured to a stable growth stage is evenly mixed with a quantitative compound solution; the germinated melon seeds are soaked in the mixed solution of a bacteria solution and the compound for half an hour; then, the seeds are sown in an earthworm soil culture cup and put into a greenhouse for moisturizing cultivation for two weeks generally; and the control effect is investigated after full onset of diseases through control.

SMILES	control effects on soft rot of Chinese cabbage [4] [%]	control effects on melon bacterial fruit blotch [5] [%]	also measured
N#CC(C#N)=NOCc1cnc(Cl)s1 [CK1, reference compound]			Control Effects on Cucumber Downy Mildew (%) [1]: 0%; Control Effects on Soybean Rust (%) ([2]; 100 ppm): 0%; Control Effects on Soybean Rust (%) ([2]; 200 ppm): 0%
N#CC(C#N)=NOCc1csc(-c2ccccc2)n1 [CK2, reference compound]			Control Effects on Cucumber Downy Mildew (%) [1]: 0%; Control Effect (%) ([3]; active ingredient dose 700 mg/L): 76.89%
N#CC(C#N)=NOCc1csc(-c2ccc(Cl)cc2)n1 [CK3, reference compound]			Control Effects on Cucumber Downy Mildew (%) [1]: 0%
N#CC(C#N)=NOCc1csc(NC(=O)c2ccc(Cl)cc2)n1 [Compound 4]	100	100	
N#CC(C#N)=NOCc1csc(NC(=O)c2ccccc2F)n1 [Compound 5]	100	100	
N#CC(C#N)=NOCc1csc(NC(=O)c2cccc(F)c2)n1 [Compound 6]	100	100	
N#CC(C#N)=NOCc1csc(NC(=O)c2ccc(Br)cc2)n1 [Compound 10]			Control Effects on Soybean Rust (%) ([2]; 100 ppm): 100%; Control Effects on Soybean Rust (%) ([2]; 200 ppm): 100%
N#CC(C#N)=NOCc1csc(NC(=O)c2ccccc2C(F)(F)F)n1 [Compound 20]	100	100	Control Effects on Cucumber Downy Mildew (%) [1]: 100%
N#CC(C#N)=NOCc1csc(NC(=O)c2ccc(C(F)(F)F)cc2)n1 [Compound 22]	100	100	
N#CC(C#N)=NOCc1csc(NC(=O)c2ccccc2OC(F)(F)F)n1 [Compound 23]	100	100	Control Effects on Soybean Rust (%) ([2]; 100 ppm): 100%; Control Effects on Soybean Rust (%) ([2]; 200 ppm): 100%
N#CC(C#N)=NOCc1csc(NC(=O)c2ccc(Cl)cc2Cl)n1 [Compound 34]	100	100	
N#CC(C#N)=NOCc1csc(NC(=O)c2ccc(Cl)c(Cl)c2)n1 [Compound 36]	100	100	
N#CC(C#N)=NOCc1csc(NC(=O)c2ccc([N+](=O)[O-])c(F)c2)n1 [Compound 45]	100	100	Control Effects on Cucumber Downy Mildew (%) [1]: 100%
N#CC(C#N)=NOCc1csc(N)n1 [Compound 47, ((2-aminothiazole-4-yl)methoxy)iminoimide dicyanide]	100	100	Control Effects on Soybean Rust (%) ([2]; 100 ppm): 85%; Control Effects on Soybean Rust (%) ([2]; 200 ppm): 100%; Control Effect (%) ([3]; active ingredient dose 400 mg/L): 77.00%
N#CC(C#N)=NOCc1csc(NC(=O)c2cccnc2)n1 [Compound 65]	100	100	
N#CC(C#N)=NOCc1csc(NC(=O)c2ccc(F)c(C(F)(F)F)c2)n1 [Compound 74]	100	100	

SMILES	control effects on soft rot of Chinese cabbage [4] [%]	control effects on melon bacterial fruit blotch [5] [%]	also measured
N#CC(C#N)=NOCc1csc(NC(=O)c2ccc(F)cc2F)n1 [Compound 86]	100	100	
N#CC(C#N)=NOCc1csc(NC(=O)c2ccc(F)c(F)c2)n1 [Compound 87]	100	100	
N#CC(C#N)=NOCc1csc(NC(=O)c2ccccc2)n1 [Compound 95]	100	100	
CC=CC(=O)Nc1nc(CON=C(C#N)C#N)cs1 [Compound 117]	100	100	Control Effects on Cucumber Downy Mildew (%) [1]: 100%
CCC(=O)Nc1nc(CON=C(C#N)C#N)cs1 [Compound 118]	100	100	
N#CC(C#N)=NOCc1csc(NC(=O)C(F)(F)F)n1 [Compound 119]	100	100	
CC(C)(C)OC(=O)Nc1nc(CON=C(C#N)C#N)cs1 [Compound 123]	100	100	
N#CC(=NOCc1csc(NC(=O)c2ccccc2Cl)n1)C(N)=O [Compound 134]	100	100	
N#CC(=NOCc1csc(N)n1)C(N)=O [Compound 179]	100	100	Control Effects on Soybean Rust (%) ([2]; 100 ppm): 80%; Control Effects on Soybean Rust (%) ([2]; 200 ppm): 100%
Cc1ccc(S(=O)(=O)Nc2nc(CON=C(C#N)C(N)=O)cs2)cc1 [Compound 228]	100	100	
CC(C)(C)OC(=O)Nc1nc(CON=C(C#N)C(N)=O)cs1 [Compound 253]	100	100	
CC(=NNc1nc(CON=C(C#N)C#N)cs1)c1ccc(F)cc1 [Compound 361]	100	100	
CCc1ccc(C(=O)Nc2nc(CON=C(C#N)C#N)cs2)cc1 [Compound 365]			Control Effects on Soybean Rust (%) ([2]; 100 ppm): 100%; Control Effects on Soybean Rust (%) ([2]; 200 ppm): 100%
N#CC(C#N)=NOCc1csc(NC(=O)c2ccc3c(c2)OC(F)(F)O3)n1 [Compound 366]	100	100	
N#CC(C#N)=NOCc1csc(NN=C(c2ccc(Cl)cc2)c2ccc(Cl)cc2)n1 [Compound 367]	100	100	

— patent US12262712B2, “Oxime ether compound and application thereof” (SHENYANG SINOCHEM AGROCHEMICALS R&D CO., LTD., priority 2019, dated 2025)
